Among the data in US20260083851A1 (AVILAR THERAPEUTICS, INC., priority 2022, published 2026) are Kd values, retold here.

Each structure is given as a SMILES string. Read-outs that look alike come from different tables or passages of the source. Where only a bound is given, the exact number is not on record here.

The target in this test is T1, ASGP receptor (biotinylated ASGPR) (Homo sapiens, UniProt P07306).
T1 construct: biotin (biotinylated)
T1 sequence (P07306 1-291): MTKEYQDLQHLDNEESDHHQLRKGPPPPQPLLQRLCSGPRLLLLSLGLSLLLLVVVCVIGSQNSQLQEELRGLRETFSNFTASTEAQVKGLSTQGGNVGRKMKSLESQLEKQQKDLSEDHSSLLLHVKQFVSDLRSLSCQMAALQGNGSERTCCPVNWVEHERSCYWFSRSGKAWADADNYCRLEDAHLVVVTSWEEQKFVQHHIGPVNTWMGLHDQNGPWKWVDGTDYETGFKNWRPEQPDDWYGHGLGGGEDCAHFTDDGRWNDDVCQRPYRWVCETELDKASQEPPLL
The format is binding. The settings on record: SPR, Biacore 8K, 25° C. On the technique in general: Surface plasmon resonance follows binding to a sensor surface in real time, without labels.

The mark [1] stands for this setting: Table 1B, numeric bound, read-out: ASGPR Kd.
[2] abbreviates: Table 1C, numeric bound, read-out: ASGPR KD.

Regarding `O[C@@H]1[C@@H](Nc2cncc(C(F)(F)F)n2)CNC[C@@H]1O` [A150, (3S,4R,5S)-5-((6-(trifluoromethyl)pyrazin-2-yl)amino)piperidine-3,4-diol], where the note is “Table 1B, read-out: ASGPR Kd”, the Kd is below 10 µM. For `COc1cc(N[C@H]2CO[C@H](CO)[C@H](O)[C@@H]2O)nc(C(F)(F)F)c1` [A151, (2R,3R,4R,5S)-2-(hydroxymethyl)-5-((4-methoxy-6-(trifluoromethyl)pyridin-2-yl)amino)tetrahydro-2H-pyran-3,4-diol], the Kd (Table 1B, read-out: ASGPR Kd) was below 10 µM. Turning to `O=C1c2ccccc2CN1C[C@H]1OC[C@H](Nc2cncc(C(F)(F)F)n2)[C@@H](O)[C@H]1O` [A152, 2-(((2R,3R,4R,5S)-3,4-dihydroxy-5-((6-(trifluoromethyl)pyrazin-2-yl)amino)tetrahydro-2H-pyran-2-yl)methyl) isoindolin-1-one], the Kd (Table 1B, read-out: ASGPR Kd) was below 10 µM. For the compound `OC[C@H]1OC[C@H](Nc2cccc(Br)n2)[C@@H](O)[C@H]1O` [A153, (2R,3R,4R,5S)-5-((6-bromopyridin-2-yl)amino)-2-(hydroxymethyl)tetrahydro-2H-pyran-3,4-diol], for the setting “Table 1B, read-out: ASGPR Kd”, the dissociation constant (Kd) was below 10 µM. With `O[C@@H]1[C@H](O)[C@@H](Nc2cncc(F)n2)CO[C@@H]1COc1cncc(F)n1` [A154, (2R,3R,4R,5S)-5-((6-fluoropyrazin-2-yl)amino)-2-(((6-fluoropyrazin-2-yl)oxy)methyl)tetrahydro-2H-pyran-3,4-diol], under “Table 1B, read-out: ASGPR Kd”, the Kd is below 10 µM. For the compound `C[C@H]1OC[C@H](Nc2cncc(C(F)(F)F)n2)[C@@H](O)[C@H]1O` [A155, (2R,3R,4R,5S)-2-methyl-5-((6-(trifluoromethyl)pyrazin-2-yl)amino)tetrahydro-2H-pyran-3,4-diol], where the note is “Table 1B, read-out: ASGPR Kd”, the Kd was below 10 µM. As to `COc1cncnc1N[C@H]1CO[C@H](CO)[C@H](O)[C@@H]1O` [A156, (2R,3R,4R,5S)-2-(hydroxymethyl)-5-((5-methoxypyrimidin-4-yl)amino)tetrahydro-2H-pyran-3,4-diol], under “Table 1B, read-out: ASGPR Kd”, the Kd fell in the range of 10 to 100 µM. With `O=C1CCCN1C[C@H]1OC[C@H](Nc2cncc(C(F)(F)F)n2)[C@@H](O)[C@H]1O` [A157, 1-(((2R,3R,4R,5S)-3,4-dihydroxy-5-((6-(trifluoromethyl)pyrazin-2-yl)amino)tetrahydro-2H-pyran-2-yl)methyl)pyrrolidin-2-one], where the note is “Table 1B, read-out: ASGPR Kd”, the Kd was below 10 µM. For the compound `OC[C@H]1OC[C@H](NC2CCCC(C(F)(F)F)C2)[C@@H](O)[C@H]1O` (stereo partly drawn) [A158, (2R,3R,4R,5S)-2-(hydroxymethyl)-5-((3-(trifluoromethyl)cyclohexyl)amino) tetrahydro-2H-pyran-3,4-diol], under setting [1], the Kd is above 30 µM. For `OC[C@H]1OC[C@H](NC2CCCCC2)[C@@H](O)[C@H]1O` [A159, (2R,3R,4R,5S)-5-(cyclohexylamino)-2-(hydroxymethyl)tetrahydro-2H-pyran-3,4-diol], the Kd under setting [1] was above 30 µM. Consider `OC[C@H]1OC[C@H](N(CC2CC2)CC2CC2)[C@@H](O)[C@H]1O` [A160, (2R,3R,4R,5S)-5-(bis(cyclopropylmethyl)amino)-2-(hydroxymethyl)tetrahydro-2H-pyran-3,4-diol], for which the Kd under setting [1] is above 30 µM. As to `OC[C@H]1OC[C@H](Sc2cccc(C(F)(F)F)n2)[C@@H](O)[C@H]1O` [A161, (2R,3R,4S,5S)-2-(hydroxymethyl)-5-((6-(trifluoromethyl)pyridin-2-yl)thio)tetrahydro-2H-pyran-3,4-diol], the Kd (Table 1B, read-out: ASGPR Kd) was below 10 µM. Take `O[C@@H]1[C@H](O)[C@@H](Nc2cncc(C(F)(F)F)n2)CO[C@@H]1CF` [A162, (2S,3R,4R,5S)-2-(fluoromethyl)-5-((6-(trifluoromethyl)pyrazin-2-yl)amino)tetrahydro-2H-pyran-3,4-diol]: the Kd (Table 1B, read-out: ASGPR Kd) is below 10 µM.

For `CC(C)N[C@H]1CO[C@H](CO)[C@H](O)[C@@H]1O` [A163, (2R,3R,4R,5S)-2-(hydroxymethyl)-5-(isopropylamino)tetrahydro-2H-pyran-3,4-diol], under setting [1], the Kd is above 30 µM. `COc1cccc(N[C@H]2CO[C@H](CO)[C@H](O)[C@@H]2O)n1` [A164, (2R,3R,4R,5S)-2-(hydroxymethyl)-5-((6-methoxypyridin-2-yl)amino)tetrahydro-2H-pyran-3,4-diol]: where the note is “Table 1B, read-out: ASGPR Kd”, the Kd is below 10 µM. Regarding `NCc1ccc(N2CCC(CN3CCN(C[C@H]4OC[C@H](Nc5cncc(C(F)(F)F)n5)[C@@H](O)[C@H]4O)CC3)CC2)cc1` [A165, (2R,3R,4R,5S)-2-((4-((1-(4-(aminomethyl)phenyl)piperidin-4-yl)methyl)piperazin-1-yl)methyl)-5-((6-(trifluoromethyl)pyrazin-2-yl)amino)tetrahydro-2H-pyran-3,4-diol], for the setting “Table 1B, read-out: ASGPR Kd”, the Kd is below 10 µM. For the compound `OC[C@H]1OC[C@H](NC2CCC2)[C@@H](O)[C@H]1O` [A166, (2R,3R,4R,5S)-5-(cyclobutylamino)-2-(hydroxymethyl)tetrahydro-2H-pyran-3,4-diol], the Kd under setting [1] is above 30 µM.

As to `O[C@@H]1[C@H](O)[C@@H](Nc2cncc(C(F)(F)F)n2)CO[C@@H]1C(F)F` [A179, (2S,3R,4R,5S)-2-(difluoromethyl)-5-((6-(trifluoromethyl)pyrazin-2-yl)amino)tetrahydro-2H-pyran-3,4-diol], the Kd (Table 1C, read-out: ASGPR KD) was below 10 µM. Turning to `Cc1cncc(N[C@H]2CO[C@H](CO)[C@H](O)[C@@H]2O)n1` [A180, (2R,3R,4R,5S)-2-(hydroxymethyl)-5-((6-methylpyrazin-2-yl)amino)tetrahydro-2H-pyran-3,4-diol], the Kd (Table 1C, read-out: ASGPR KD) was below 10 µM.

Take `OC[C@H]1OC[C@H](Nc2ncc3c(n2)CCC3)[C@@H](O)[C@H]1O` [A182, (2R,3R,4R,5S)-5-((6,7-dihydro-5H-cyclopenta[d]pyrimidin-2-yl)amino)-2-(hydroxymethyl)tetrahydro-2H-pyran-3,4-diol]: the Kd under setting [2] was above 30 µM. As to `OC[C@H]1OC[C@H](Nc2ncc3cn[nH]c3n2)[C@@H](O)[C@H]1O` [A183, (2R,3R,4R,5S)-5-((1H-pyrazolo[3,4-d]pyrimidin-6-yl)amino)-2-(hydroxymethyl)tetrahydro-2H-pyran-3,4-diol], under setting [2], the Kd was above 30 µM. Turning to `OC[C@H]1OC[C@H](Nc2ncc3cc[nH]c3n2)[C@@H](O)[C@H]1O` [A184, (2R,3R,4R,5S)-5-((7H-pyrrolo[2,3-d]pyrimidin-2-yl)amino)-2-(hydroxymethyl)tetrahydro-2H-pyran-3,4-diol], the Kd under setting [2] was above 30 µM. For `OC[C@H]1OC[C@H](Nc2cccc(OC(F)F)n2)[C@@H](O)[C@H]1O` [A185, (2R,3R,4R,5S)-5-((6-(difluoromethoxy)pyridin-2-yl)amino)-2-(hydroxymethyl)tetrahydro-2H-pyran-3,4-diol], where the note is “Table 1C, read-out: ASGPR KD”, the Kd is below 10 µM. For `O=C(O)c1ccc(OC[C@H]2OC[C@H](Nc3cncc(C(F)(F)F)n3)[C@@H](O)[C@H]2O)nn1` [A186, 6-(((2R,3R,4R,5S)-3,4-dihydroxy-5-((6-(trifluoromethyl)pyrazin-2-yl)amino)tetrahydro-2H-pyran-2-yl)methoxy)pyridazine-3-carboxylic acid], the Kd (Table 1C, read-out: ASGPR KD) is below 10 µM.

Turning to `O=C(O)c1cnc(OC[C@H]2OC[C@H](Nc3cncc(C(F)(F)F)n3)[C@@H](O)[C@H]2O)cn1` [A187, 5-(((2R,3R,4R,5S)-3,4-dihydroxy-5-((6-(trifluoromethyl)pyrazin-2-yl)amino)tetrahydro-2H-pyran-2-yl)methoxy)pyrazine-2-carboxylic acid], the Kd (Table 1C, read-out: ASGPR KD) is below 10 µM.

As to `N#Cc1ccc(OC[C@H]2OC[C@H](Nc3cncc(C(F)(F)F)n3)[C@@H](O)[C@H]2O)nn1` [A188, 6-(((2R,3R,4R,5S)-3,4-dihydroxy-5-((6-(trifluoromethyl)pyrazin-2-yl)amino)tetrahydro-2H-pyran-2-yl)methoxy)pyridazine-3-carbonitrile], where the note is “Table 1C, read-out: ASGPR KD”, the Kd is below 10 µM. In the case of `CC#Cc1cccc(N[C@H]2CO[C@H](CO)[C@H](O)[C@@H]2O)n1` [A189, (2R,3R,4R,5S)-2-(hydroxymethyl)-5-((6-(prop-1-yn-1-yl)pyridin-2-yl)amino)tetrahydro-2H-pyran-3,4-diol], the dissociation constant (Kd) under setting [2] is above 30 µM. As for `O[C@@H]1[C@H](O)[C@@H](Oc2cccc(C(F)(F)F)n2)CO[C@@H]1COc1ccc(-c2ccccc2)cc1` [A190, (2R,3R,4S,5S)-2-(([1,1′-biphenyl]-4-yloxy)methyl)-5-((6-(trifluoromethyl)pyridin-2-yl)oxy)tetrahydro-2H-pyran-3,4-diol], the Kd (Table 1C, read-out: ASGPR KD) is below 10 µM.

Take `NC[C@H]1OC[C@H](Oc2cccc(C(F)(F)F)n2)[C@@H](O)[C@H]1O` [A192, (2R,3R,4S,5S)-2-(aminomethyl)-5-((6-(trifluoromethyl)pyridin-2-yl)oxy)tetrahydro-2H-pyran-3,4-diol]: under “Table 1C, read-out: ASGPR KD”, the Kd is below 10 µM.

On to `CC(C)(C)OC(=O)N1CCC(n2cc([C@H]3OC[C@H](Nc4cncc(C(F)(F)F)n4)[C@@H](O)[C@H]3O)nn2)CC1` [A193, tert-butyl 4-(4-((2R,3R,4R,5S)-3,4-dihydroxy-5-((6-(trifluoromethyl)pyrazin-2-yl)amino)tetrahydro-2H-pyran-2-yl)-1H-1,2,3-triazol-1-yl)piperidine-1-carboxylate], for which, where the note is “Table 1C, read-out: ASGPR KD”, the Kd is below 10 µM.

For `O=C(O)c1cnc(OC[C@H]2OC[C@H](Nc3cncc(C(F)(F)F)n3)[C@@H](O)[C@H]2O)nc1` [A194, 2-(((2R,3R,4R,5S)-3,4-dihydroxy-5-((6-(trifluoromethyl)pyrazin-2-yl)amino)tetrahydro-2H-pyran-2-yl)methoxy)pyrimidine-5-carboxylic acid], the Kd (Table 1C, read-out: ASGPR KD) was below 10 µM. For `CC(C)(C)OC(=O)N1CC=C(c2cccc(N[C@H]3CO[C@H](CO)[C@H](O)[C@@H]3O)n2)CC1` [A195, tert-butyl 6-(((3S,4R,5R,6R)-4,5-dihydroxy-6-(hydroxymethyl)tetrahydro-2H-pyran-3-yl)amino)-3′,6′-dihydro-[2,4′-bipyridine]-1′(2′H)-carboxylate], the Kd (Table 1C, read-out: ASGPR KD) is below 10 µM.

One may read the Kd as a measure of binding affinity in units of concentration.
